Results on four compounds are retold here after publication PMC10480232 (Scientific Reports, 2023).

Non-standard residues stand in square brackets, D forms with d. Residues, ends and D or L forms follow the SMILES beside them.

One data set concerns the target SARS-CoV-2 HR1 (Severe acute respiratory syndrome coronavirus 2, UniProt P0DTC2). In words: biochemical. It counts as binding.
The test system of data set [1] is SARS-CoV-2 (nCoV/USA_WA1/2020).
The next data set addresses SARS-CoV-1 HR1 (Severe acute respiratory syndrome coronavirus, UniProt P59594). In words: biochemical. It counts as binding.
The next data set has as its system SARS-CoV-2. To be noted: 1 h.
Data set [2] addresses SARS-CoV-1 spike heptad repeat 1 peptide, biotinylated (SARS-CoV-1). In words: BLI. In general terms: Biolayer interferometry detects binding as a change in optical thickness at a sensor tip.

Broadly, the Kd is the concentration at which binding is half-saturated. Lower therefore signals tighter binding. As for `CC[C@@H](C)[C@@H](NC(=O)[C@H]1CCCN1C(=O)[C@H]1CCCN1C(=O)[C@H](NC(=O)[C@@H](Cc1c[nH]c2ccccc12)NC(=O)[C@@H](CCCCN)NC(=O)[C@@H](CC(C)C)NC(=O)[C@H](NC(=O)[C@@H](CCCCN)NC(=O)CNC(=O)[C@H](NC(=O)[C@@H](CCCCN)NC(=O)[C@@H](CCCCN)NC(=O)[C@@H](CC(C)C)NC(=O)[C@@H](CCCNC(=N)N)NC(=O)[C@@H](CCCCN)NC(=O)[C@@H](CCCNC(=N)N)NC(=O)[C@H](NC(=O)[C@@H](CCCCN)NC(=O)[C@@H](CCCCN)NC(=O)[C@@H](CCCNC(=N)N)NC(=O)[C@@H](CC(C)C)NC(=O)[C@@H](CCCNC(=N)N)NC(=O)[C@@H](CCCNC(=N)N)NC(=O)[C@@H](Cc1ccccc1)NC(=O)[C@@H](CCCNC(=N)N)NC(=O)CNC(=O)[C@H](N)C(C)C)[C@H](C)O)[C@H](C)CC)C(C)C)[C@H](C)CC)C(=O)N[C@@H](C(=O)NCC(=O)N[C@H](CO)C(=O)N[C@@H](C(=O)N1CCC[C@@H]1C(=O)N[C@H](CC(C)C)C(=O)NCC(=O)N[C@H](CO)C(=O)NCC(=O)O)[C@H](C)CC)C(C)C` [D-Yongshi] (H-[dV]G[dR][dF][dR][dR][dL][dR][dK][dK][dT][dR][dK][dR][dL][dK][dK][dI]G[dK][dV][dL][dK][dW][dI][dP][dP][dI][dV]G[dS][dI][dP][dL]G[dS]G-OH; N-terminus and C-terminus assumed), the “cytotoxicity compared with parent or control peptide (in words)” value with Vero hACE2 cells is “greatly increased cytotoxicity”. Further, the Kd on SARS-CoV-2 HR1 and at SARS-CoV-1 HR1 was over 100 µM each time. In addition, the “SARS-CoV-2 inhibition by D-enantiomer (in words)” value in data set [1] was “only observed at concentrations that also induced substantial cell death”.
Consider `CC[C@H](C)[C@H](NC(=O)[C@@H](NC(=O)[C@@H](N)CO)[C@@H](C)CC)C(=O)N[C@@H](CC(N)=O)C(=O)N[C@@H](Cc1ccccc1)C(=O)N[C@@H](CCC(=O)O)C(=O)N[C@@H](CCCCN)C(=O)N[C@@H](CC(C)C)C(=O)O` [OVA, reference compound], for which the “Vero TD50 48 h” value with Vero hACE2 cells was over 50 µM. Moreover, the “Vero TD50 24 h” value in the data set with Vero A2T2 cell line is recorded as over 400 µM. For the same compound, the “HEK293T TD50” value in the data set on HEK293T cells is given as over 50 µM.
Consider `CC[C@H](C)[C@H](NC(=O)[C@H](CCCCN)NC(=O)[C@H](CCCCN)NC(=O)[C@H](CC(C)C)NC(=O)[C@H](CCCNC(=N)N)NC(=O)[C@H](CCCCN)NC(=O)[C@H](CCCNC(=N)N)NC(=O)[C@@H](NC(=O)[C@H](CCCCN)NC(=O)[C@H](CCCCN)NC(=O)[C@H](CCCNC(=N)N)NC(=O)[C@H](CC(C)C)NC(=O)[C@H](CCCNC(=N)N)NC(=O)[C@H](CCCNC(=N)N)NC(=O)[C@H](Cc1ccccc1)NC(=O)[C@H](CCCNC(=N)N)NC(=O)CNC(=O)[C@@H](N)C(C)C)[C@@H](C)O)C(=O)NCC(=O)N[C@@H](CCCCN)C(=O)N[C@H](C(=O)N[C@@H](CC(C)C)C(=O)N[C@@H](CCCCN)C(=O)N[C@@H](Cc1c[nH]c2ccccc12)C(=O)N[C@H](C(=O)N1CCC[C@H]1C(=O)N1CCC[C@H]1C(=O)N[C@H](C(=O)N[C@H](C(=O)NCC(=O)N[C@@H](CO)C(=O)N[C@H](C(=O)N1CCC[C@H]1C(=O)N[C@@H](CC(C)C)C(=O)NCC(=O)N[C@@H](CS)C(=O)NCC(=O)O)[C@@H](C)CC)C(C)C)[C@@H](C)CC)[C@@H](C)CC)C(C)C` [PMAP-36R] (H-VGRFRRLRKKTRKRLKKIGKVLKWIPPIVGSIPLGCG-OH), for which, in the data set on Vero hACE2 cells, the “Vero TD50 48 h” value was 23.47 µM. Further, in the data set with human red blood cells, the “hemolytic activity (in words)” value is on record as “considerable hemolytic activity”. Also, in the data set with SARS-CoV-2, the “SARS-CoV-2 inhibition at 50 µM” value is over 50%. Besides, in the data set on HEK293T cells, the “HEK293T TD50” value is on record as 24.61 µM.
With “SARS-CoV-2 spike heptad repeat 2 peptide”, the Kd in [2] is 59.5 µM.
